Results as given in patent US11155517B2, “4-substituted phenylamine derivatives and their use to protect crops by fighting undesired phytopathogenic micoorganisms” (PI INDUSTRIES LTD., priority 2016, dated 2021).

Key:
Format in all cases: cell-based
[1] = system: Septoria lycopersici; test: Septoria lycopersici (leaf spot of tomato) in vitro test, radial growth on Potato Dextrose Agar; conditions: 168 h, seven days, 25° C., read-out: % control compared to the untreated check (radial growth)
[2] = system: Alternaria solani; test: Alternaria solani (early blight of tomato/potato) in vitro test, radial growth on Potato Dextrose Agar; conditions: 168 h, 300 ppm, seven days, 25° C., read-out: % control compared to the untreated check (radial growth)
[3] = system: Rhizoctonia solani; test: Rhizoctonia solani (rice sheath blight/potato black scurf) in vitro test, radial growth on Potato Dextrose Agar; conditions: 168 h, 300 ppm, seven days, 25° C., read-out: % control compared to the untreated check (radial growth)
[4] = system: Botrytis cinerea; test: Botrytis cinerea (gray mold) in vitro test, radial growth on Potato Dextrose Agar; conditions: 168 h, 300 ppm, seven days, 22° C., read-out: % (control) compared to the untreated check (radial growth)
[5] = system: Colletotrichum capsici; test: Colletotrichum capsici (anthracnose) in vitro test, radial growth on Potato Dextrose Agar; conditions: Colletotrichum truncatum, 168 h; 300 ppm; seven days, 25° C.; read-out: % control compared to the untreated check (radial growth)
[6] = system: Fusarium culmorum; test: Fusarium culmorum (foot rot of cereals) in vitro test, radial growth on Potato Dextrose Agar; conditions: Fusarium culmorum, 168 h, read-out: % control compared to the untreated check (radial growth)
[7] = system: Pyricularia oryzae; test: microbe, parasite or virus in culture; conditions: 168 h, read-out: % control compared to the untreated check (radial growth)

CCN(C)C=Nc1cc(C)c(Cc2ccc(Cl)c(C)c2)cc1C [Compound 108, N′-(4-(4-chloro-3-methylbenzyl)-2,5-dimethylphenyl)-N-ethyl-N-methylformimidamide]
inhibition of growth at 300 ppm [1]: > 70%
inhibition of growth at 300 ppm [2]: > 75%
inhibition of growth at 300 ppm [3]: > 80%
inhibition of growth at 300 ppm [4]: > 80%
inhibition of growth at 300 ppm [5]: > 80%
inhibition of growth at 300 ppm [6]: 75%
inhibition of growth at 300 ppm [7]: > 75%

CCN(C)C=Nc1cc(C)c(Cc2ccc(F)c(C)c2)cc1C [Compound 109, N-ethyl-N′-(4-(4-fluoro-3-methylbenzyl)-2,5-dimethylphenyl)-N-methylformimidamide]
inhibition of growth at 300 ppm [1]: > 70%
inhibition of growth at 300 ppm [2]: > 75%
inhibition of growth at 300 ppm [3]: > 80%
inhibition of growth at 300 ppm [4]: > 80%
inhibition of growth at 300 ppm [5]: > 80%
inhibition of growth at 300 ppm [6]: 75%
inhibition of growth at 300 ppm [7]: > 75%

CCN(C)C=Nc1cc(C)c(Cc2ccc(C)c(C)c2)cc1C [Compound 113, N′-(4-(3,4-dimethylbenzyl)-2,5-dimethylphenyl)-N-ethyl-N-methylformimidamide]
inhibition of growth at 300 ppm [1]: > 70%
inhibition of growth at 300 ppm [2]: > 75%
inhibition of growth at 300 ppm [3]: > 80%
inhibition of growth at 300 ppm [4]: > 80%
inhibition of growth at 300 ppm [5]: > 80%
inhibition of growth at 300 ppm [6]: 75%
inhibition of growth at 300 ppm [7]: > 75%

CCN(C)C=Nc1cc(C)c(Cc2cc(C)cc(C)c2)cc1C [Compound 114, N′-(4-(3,5-dimethylbenzyl)-2,5-dimethylphenyl)-N-ethyl-N-methylformimidamide]
inhibition of growth at 300 ppm [1]: > 70%
inhibition of growth at 300 ppm [2]: > 75%
inhibition of growth at 300 ppm [3]: > 80%
inhibition of growth at 300 ppm [4]: > 80%
inhibition of growth at 300 ppm [5]: > 80%
inhibition of growth at 300 ppm [6]: 75%
inhibition of growth at 300 ppm [7]: > 75%

CCN(C)C=Nc1cc(C)c(Cc2ccc(OC(F)(F)F)cc2)cc1C [Compound 117, N′-(2,5-dimethyl-4-(4-(trifluoromethoxy)benzyl)phenyl)-N-ethyl-N-methylformimidamide]
inhibition of growth at 300 ppm [1]: > 70%
inhibition of growth at 300 ppm [2]: > 75%
inhibition of growth at 300 ppm [3]: > 80%
inhibition of growth at 300 ppm [4]: > 80%
inhibition of growth at 300 ppm [5]: > 80%
inhibition of growth at 300 ppm [6]: 75%
inhibition of growth at 300 ppm [7]: > 75%

CCN(C)C=Nc1cc(C)c(Cc2cccc(Cl)c2F)cc1C [Compound 118, N′-(4-(3-chloro-2-fluorobenzyl)-2,5-dimethylphenyl)-N-ethyl-N-methylformimidamide]
inhibition of growth at 300 ppm [1]: > 70%
inhibition of growth at 300 ppm [2]: > 75%
inhibition of growth at 300 ppm [3]: > 80%
inhibition of growth at 300 ppm [4]: > 80%
inhibition of growth at 300 ppm [5]: > 80%
inhibition of growth at 300 ppm [6]: 75%
inhibition of growth at 300 ppm [7]: > 75%

CCN(C)C=Nc1cc(C)c(Cc2cc(F)cc(F)c2)cc1Cl [Compound 129, N′-(2-chloro-4-(3,5-difluorobenzyl)-5-methylphenyl)-N-ethyl-N-methylformimidamide]
inhibition of growth at 300 ppm [1]: > 70%
inhibition of growth at 300 ppm [2]: > 75%
inhibition of growth at 300 ppm [3]: > 80%
inhibition of growth at 300 ppm [4]: > 80%
inhibition of growth at 300 ppm [5]: > 80%
inhibition of growth at 300 ppm [6]: 75%
inhibition of growth at 300 ppm [7]: > 75%

CCN(C)C=Nc1cc(C)c(Cc2ccc(F)c(F)c2)cc1Cl [Compound 138, N′-(2-chloro-4-(3,4-difluorobenzyl)-5-methylphenyl)-N-ethyl-N-methylformimidamide]
inhibition of growth at 300 ppm [1]: > 70%
inhibition of growth at 300 ppm [2]: > 75%
inhibition of growth at 300 ppm [3]: > 80%
inhibition of growth at 300 ppm [4]: > 80%
inhibition of growth at 300 ppm [5]: > 80%
inhibition of growth at 300 ppm [6]: 75%
inhibition of growth at 300 ppm [7]: > 75%

CCN(C)C=Nc1cc(C)c(Cc2ccc(C)c(F)c2)cc1Cl [Compound 139, N′-(2-chloro-4-(3-fluoro-4-methylbenzyl)-5-methylphenyl)-N-ethyl-N-methylformimidamide]
inhibition of growth at 300 ppm [1]: > 70%
inhibition of growth at 300 ppm [2]: > 75%
inhibition of growth at 300 ppm [3]: > 80%
inhibition of growth at 300 ppm [4]: > 80%
inhibition of growth at 300 ppm [5]: > 80%
inhibition of growth at 300 ppm [6]: 75%
inhibition of growth at 300 ppm [7]: > 75%

CCN(C)C=Nc1cc(C)c(Cc2ccc(Cl)c(C(F)(F)F)c2)cc1C [Compound 142, N′-(4-(4-chloro-3-(trifluoromethyl)benzyl)-2,5-dimethylphenyl)-N-ethyl-N-methylformimidamide]
inhibition of growth at 300 ppm [1]: > 70%
inhibition of growth at 300 ppm [2]: > 75%
inhibition of growth at 300 ppm [3]: > 80%
inhibition of growth at 300 ppm [4]: > 80%
inhibition of growth at 300 ppm [5]: > 80%
inhibition of growth at 300 ppm [6]: 75%
inhibition of growth at 300 ppm [7]: > 75%

CCN(C)C=Nc1cc(C)c(Cc2cc(F)ccc2Cl)cc1C [Compound 143, N′-(4-(2-chloro-5-fluorobenzyl)-2,5-dimethylphenyl)-N-ethyl-N-methylformimidamide]
inhibition of growth at 300 ppm [1]: > 70%
inhibition of growth at 300 ppm [2]: > 75%
inhibition of growth at 300 ppm [3]: > 80%
inhibition of growth at 300 ppm [4]: > 80%
inhibition of growth at 300 ppm [5]: > 80%
inhibition of growth at 300 ppm [6]: 75%
inhibition of growth at 300 ppm [7]: > 75%

CCN(C)C=Nc1cc(C)c(Cc2ccc(C)c(F)c2)cc1C [Compound 144, N-ethyl-N′-(4-(3-fluoro-4-methylbenzyl)-2,5-dimethylphenyl)-N-methylformimidamide]
inhibition of growth at 300 ppm [1]: > 70%
inhibition of growth at 300 ppm [2]: > 75%
inhibition of growth at 300 ppm [3]: > 80%
inhibition of growth at 300 ppm [4]: > 80%
inhibition of growth at 300 ppm [5]: > 80%
inhibition of growth at 300 ppm [6]: 75%
inhibition of growth at 300 ppm [7]: > 75%

CCN(C)C=Nc1cc(C)c(Cc2ccc(Cl)c(OC(F)(F)F)c2)cc1C [Compound 145, N′-(4-(4-chloro-3-(trifluoromethoxy)benzyl)-2,5-dimethylphenyl)-N-ethyl-N-methylformimidamide]
inhibition of growth at 300 ppm [1]: > 70%
inhibition of growth at 300 ppm [2]: > 75%
inhibition of growth at 300 ppm [3]: > 80%
inhibition of growth at 300 ppm [4]: > 80%
inhibition of growth at 300 ppm [5]: > 80%
inhibition of growth at 300 ppm [6]: 75%
inhibition of growth at 300 ppm [7]: > 75%

CCN(C)C=Nc1cc(C)c(Cc2ccc(F)c(F)c2)cc1C [Compound 146, N′-(4-(3,4-difluorobenzyl)-2,5-dimethylphenyl)-N-ethyl-N-methylformimidamide]
inhibition of growth at 300 ppm [1]: > 70%
inhibition of growth at 300 ppm [2]: > 75%
inhibition of growth at 300 ppm [3]: > 80%
inhibition of growth at 300 ppm [4]: > 80%
inhibition of growth at 300 ppm [5]: > 80%
inhibition of growth at 300 ppm [6]: 75%
inhibition of growth at 300 ppm [7]: > 75%

CCN(C)C=Nc1cc(C)c(Cc2ccccc2Br)cc1C [Compound 154, N′-(4-(2-bromobenzyl)-2,5-dimethylphenyl)-N-ethyl-N-methylformimidamide]
inhibition of growth at 300 ppm [1]: > 70%
inhibition of growth at 300 ppm [2]: > 75%
inhibition of growth at 300 ppm [3]: > 80%
inhibition of growth at 300 ppm [4]: > 80%
inhibition of growth at 300 ppm [5]: > 80%
inhibition of growth at 300 ppm [6]: 75%
inhibition of growth at 300 ppm [7]: > 75%

CCN(C)C=Nc1cc(C)c(Cc2ccc(C(F)(F)F)c(F)c2)cc1C [Compound 158, N-ethyl-N′-(4-(3-fluoro-4-(trifluoromethyl)benzyl)-2,5-dimethylphenyl)-N-methylformimidamide]
inhibition of growth at 300 ppm [1]: > 70%
inhibition of growth at 300 ppm [2]: > 75%
inhibition of growth at 300 ppm [3]: > 80%
inhibition of growth at 300 ppm [4]: > 80%
inhibition of growth at 300 ppm [5]: > 80%
inhibition of growth at 300 ppm [6]: 75%
inhibition of growth at 300 ppm [7]: > 75%

CCN(C)C=Nc1cc(C)c(Cc2cc(C(F)(F)F)ccc2Cl)cc1C [Compound 159, N′-(4-(2-chloro-5-(trifluoromethyl)benzyl)-2,5-dimethylphenyl)-N-ethyl-N-methylformimidamide]
inhibition of growth at 300 ppm [1]: > 70%
inhibition of growth at 300 ppm [2]: > 75%
inhibition of growth at 300 ppm [3]: > 80%
inhibition of growth at 300 ppm [4]: > 80%
inhibition of growth at 300 ppm [5]: > 80%
inhibition of growth at 300 ppm [6]: 75%
inhibition of growth at 300 ppm [7]: > 75%

CCN(C)C=Nc1cc(C)c(Cc2ccc(Cl)cc2Cl)cc1C [Compound 162, N′-(4-(2,4-dichlorobenzyl)-2,5-dimethylphenyl)-N-ethyl-N-methylformimidamide]
inhibition of growth at 300 ppm [1]: > 70%
inhibition of growth at 300 ppm [2]: > 75%
inhibition of growth at 300 ppm [3]: > 80%
inhibition of growth at 300 ppm [4]: > 80%
inhibition of growth at 300 ppm [5]: > 80%
inhibition of growth at 300 ppm [6]: 75%
inhibition of growth at 300 ppm [7]: > 75%

CCN(C)C=Nc1cc(C)c(Cc2cc(F)ccc2C)cc1Cl [Compound 165, N′-(2-chloro-4-(5-fluoro-2-methylbenzyl)-5-methylphenyl)-N-ethyl-N-methylformimidamide]
inhibition of growth at 300 ppm [1]: > 70%
inhibition of growth at 300 ppm [2]: > 75%
inhibition of growth at 300 ppm [3]: > 80%
inhibition of growth at 300 ppm [4]: > 80%
inhibition of growth at 300 ppm [5]: > 80%
inhibition of growth at 300 ppm [6]: 75%
inhibition of growth at 300 ppm [7]: > 75%

CCN(C)C=Nc1cc(C)c(Cc2ccc(F)cc2C)cc1Cl [Compound 167, N′-(2-chloro-4-(4-fluoro-2-methylbenzyl)-5-methylphenyl)-N-ethyl-N-methylformimidamide]
inhibition of growth at 300 ppm [1]: > 70%
inhibition of growth at 300 ppm [2]: > 75%
inhibition of growth at 300 ppm [3]: > 80%
inhibition of growth at 300 ppm [4]: > 80%
inhibition of growth at 300 ppm [5]: > 80%
inhibition of growth at 300 ppm [6]: 75%
inhibition of growth at 300 ppm [7]: > 75%
